Here are results for nine molecules from patent US9387203B2, “Substituted aminoindane- and aminotetralinecarboxylic acids and the use thereof” (BAYER PHARMA AKTIENGESELLSCHAFT, priority 2012, dated 2016).

For test [1], the target named is T1, soluble guanylate cyclase (sGC) (Rattus norvegicus, UniProt P20595).
T1 construct: made in house
T1 sequence (P20595 1-619): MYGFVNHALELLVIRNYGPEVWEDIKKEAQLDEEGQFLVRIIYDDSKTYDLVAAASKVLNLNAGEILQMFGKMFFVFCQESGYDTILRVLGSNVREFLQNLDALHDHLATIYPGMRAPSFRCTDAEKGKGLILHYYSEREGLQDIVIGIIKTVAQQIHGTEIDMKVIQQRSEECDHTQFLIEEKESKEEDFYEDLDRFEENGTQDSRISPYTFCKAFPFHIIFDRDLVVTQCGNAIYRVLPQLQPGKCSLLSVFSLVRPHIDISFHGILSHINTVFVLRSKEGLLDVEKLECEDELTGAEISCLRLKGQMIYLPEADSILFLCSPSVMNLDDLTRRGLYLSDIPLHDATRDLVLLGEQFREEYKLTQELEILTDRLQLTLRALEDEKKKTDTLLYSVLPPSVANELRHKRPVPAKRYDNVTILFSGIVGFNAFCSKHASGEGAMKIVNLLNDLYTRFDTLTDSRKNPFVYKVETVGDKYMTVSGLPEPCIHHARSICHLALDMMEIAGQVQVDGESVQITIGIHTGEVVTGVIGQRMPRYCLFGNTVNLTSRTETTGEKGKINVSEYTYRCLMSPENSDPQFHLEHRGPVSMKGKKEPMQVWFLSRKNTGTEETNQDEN
T1 sequence (P19686 1-690 partner): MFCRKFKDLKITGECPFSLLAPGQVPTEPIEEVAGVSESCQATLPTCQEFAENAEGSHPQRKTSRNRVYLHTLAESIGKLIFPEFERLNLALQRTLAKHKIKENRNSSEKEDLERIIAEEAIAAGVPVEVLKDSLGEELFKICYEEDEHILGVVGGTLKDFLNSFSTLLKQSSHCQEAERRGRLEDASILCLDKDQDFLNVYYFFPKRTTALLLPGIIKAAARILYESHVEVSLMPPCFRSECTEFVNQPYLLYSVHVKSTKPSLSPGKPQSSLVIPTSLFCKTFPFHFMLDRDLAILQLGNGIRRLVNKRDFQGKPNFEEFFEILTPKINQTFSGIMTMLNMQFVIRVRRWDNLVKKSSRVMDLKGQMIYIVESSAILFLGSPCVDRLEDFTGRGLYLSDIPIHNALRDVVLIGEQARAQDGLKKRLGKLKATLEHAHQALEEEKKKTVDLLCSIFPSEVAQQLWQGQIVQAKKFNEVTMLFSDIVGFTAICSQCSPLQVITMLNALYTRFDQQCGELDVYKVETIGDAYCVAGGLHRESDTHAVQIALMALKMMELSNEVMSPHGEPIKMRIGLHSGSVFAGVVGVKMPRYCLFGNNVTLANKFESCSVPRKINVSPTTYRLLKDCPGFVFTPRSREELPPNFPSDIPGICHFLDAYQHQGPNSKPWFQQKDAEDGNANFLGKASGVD
In words: Stimulation of sGC enzyme activity (PPi detection, luciferase). The format is biochemical. To be noted: for EC50: sGC enzyme in vitro, read-out: EC50 (half-maximal effective concentration), activating action at the sGC enzyme in vitro. Here is the method: B-2. Stimulation of sGC Enzyme Activity
Soluble guanylate cyclase (sGC) converts on stimulation GTP into cGMP and pyrophosphate (PPi). PPi is detected with the aid of the assay described below. The signal produced in the assay increases as the reaction progresses and serves as a measure of the sGC enzyme activity under the given stimulation.
To carry out the assay, 29 μl of enzyme solution[0-10 nM soluble guanylate cyclase (prepared according to Honicka et al., J. Mol. Med. 77, 14-23 (1999)) in 50 mM TEA, 2 mM MgCl2, 0.1% BSA (fraction V), 0.005% Brij®, pH 7.5] are initially introduced into a microplate, and 1 μl of the substance to be tested (as a serially diluted solution in DMSO) is added. The mixture is incubated at room temperature for 10 min. Then 20 μl of detection mix [1.2 nM Firefly Luciferase (Photinus pyralis luciferase, Promega), 29 μM dehydroluciferin (prepared according to Bitler & McElroy, Arch. Biochem. Biophys. 72, 358 (1957)), 122 μM luciferin (Promega), 153 μM ATP (Sigma) and 0.4 mM DTT (Sigma) in 50 mM TEA, 2 mM MgCl2, 0.1% BSA (fraction V), 0.005% Brij®, pH 7.5] are added. The enzyme reaction is started by adding 20 μl of substrate solution[1.25 mM guanosine 5′-triphosphate (Sigma) in 50 mM TEA, 2 mM MgCl2, 0.1% BSA (fraction V), 0.005% Brij®, pH 7.5] and measured continuously in a luminometer. The extent of the stimulation by the substance to be tested can be determined relative to the signal of the unstimulated reaction.
The activation of haem-free guanylate cyclase is examined by addition of 25 μM of 1H-1,2,4-oxadiazolo[4,3-a]quinoxalin-1-one (ODQ) to the enzyme solution and subsequent incubation for 30 minutes and compared to the stimulation of the native enzyme.

Test [2] deals with rabbit arteria saphena rings. In words: Vasorelaxant effect in vitro (arteria saphena rings, phenylephrin contraction). Further details: species or system Rabbits. The note with it: concentration reducing phenylephrin-induced contraction by 50%. As for the experimental part: B-3. Vasorelaxant Effect In Vitro
Rabbits are anaesthetized by intravenous injection of thiopental sodium […] (about 50 mg/kg) and exsanguinated. The arteria saphena is removed and divided into 3 mm wide rings. The rings are individually mounted on in each case one triangular pair of hooks, open at the end, made of 0.3 mm strong special wire (Remanium®). Under pretension, each ring is transferred into 5 ml organ baths containing carbogen-gassed Krebs-Henseleit solution of a temperature of 37° C. having the following composition: NaCl 119 mM; KCl 4.8 mM; CaCl2×2 H2O 1 mM; MgSO4×7 H2O 1.4 mM; KH2PO4 1.2 mM; NaHCO3 25 mM; glucose 10 mM; bovine serum albumin 0.001%. The contractile force is determined with Statham UC2 cells, amplified and digitalized using A/D transducers (DAS-1802 HC, Keithley Instruments Munich), and recorded in parallel on linear recorders. Contractions are induced by addition of phenylephrin.
After several (in general 4) control cycles, the substance to be investigated is added in each further passage in increasing dosage, and the height of the contraction achieved under the influence of the test substance is compared with the height of the contraction achieved in the last preliminary passage. From this, the concentration which is necessary in order to reduce the contraction achieved in the preliminary control by 50% (IC50) is calculated. The standard administration volume is 5 μl. The proportion of DMSO in the bath solution corresponds to 0.1%.

The test system of test [3] is recombinant guanylate cyclase reporter cell line (CHO). In words: Effect on a recombinant guanylate cyclase reporter cell line (sGC-activating activity in the CHO reporter cell). In kind it is cell-based. Here is the method: B-1. Effect on a Recombinant Guanylate Cyclase Reporter Cell Line
The cellular activity of the compounds according to the invention is determined using a recombinant guanylate cyclase reporter cell line, as described in F. Wunder et al., Anal. Biochem. 339, 104-112 (2005).

Take `CC(C)(C)c1ccc(COc2ccccc2CCN(CCCCC(=O)O)C2CCCc3cc(C(=O)O)ccc32)cc1` (racemic) [Example 1, rac-5-[(2-{2[(4-tert-Butylbenzyl)oxy]phenyl}ethyl)(4-carboxybutyl)amino]-5,6,7,8-tetrahydronaphthalene-2-carboxylic acid]: in test [1], the “MEC (minimum effective concentration), activating action at the sGC enzyme in vitro” value (shortened to “MEC … at the sGC enzyme in vitro”) is 0.34 nM and the EC50 stood at 3 nM. Besides, in test [2] (Oryctolagus cuniculus), the IC50 came to 6 nM. For the same molecule, the “MEC (minimum effective concentration), sGC-activating activity in the CHO reporter cell in vitro” value (“MEC … in the CHO reporter cell in vitro” below) in test [3] came out at 0.3 nM.

For `CC(C)(C)c1ccc(COc2ccccc2CCN(CCCCC(=O)O)C2CCCc3cc(C(=O)O)ccc32)cc1` (single isomer, unassigned; enantiomer 1) [Example 2, 5-[(2-{2-[(4-tert-Butylbenzyl)oxy]phenyl}ethyl)(4-carboxybutyl)amino]-5,6,7,8-tetrahydronaphthalene-2-carboxylic acid (enantiomer 1)], in test [1], the “MEC … at the sGC enzyme in vitro” value worked out at 0.11 nM and the EC50 turned out to be 2.5 nM. Also, in test [2], the IC50 was determined as 3.8 nM. In test [3], the “MEC … in the CHO reporter cell in vitro” value is 0.2 nM.

As for `CC(C)(C)c1ccc(COc2ccccc2CCN(CCCCC(=O)O)C2CCCc3cc(C(=O)O)ccc32)cc1` (single isomer, unassigned; enantiomer 2) [Example 3, 5-[(2-{2-[(4-tert-Butylbenzyl)oxy]phenyl}ethyl)(4-carboxybutyl)amino]-5,6,7,8-tetrahydronaphthalene-2-carboxylic acid (enantiomer 2)], in test [1], the “MEC … at the sGC enzyme in vitro” value is 5 nM and the EC50 was determined as 43 nM. For the same molecule, half-maximal inhibition in test [2] (IC50) was put at 58 nM. In addition, the “MEC … in the CHO reporter cell in vitro” value in test [3] was 0.65 nM.

Consider `CC(C)(C)c1ccc(COc2ccccc2CCN(CCCCC(=O)O)C2CCc3cc(C(=O)O)ccc32)cc1` (stereo not drawn) [Example 4], for which, in test [1], the “MEC … at the sGC enzyme in vitro” value came to 0.21 nM and the EC50 is 4.5 nM. Moreover, 31 nM corresponded to half-maximal inhibition in test [2] (Oryctolagus cuniculus) (IC50). Further, in test [3], the “MEC … in the CHO reporter cell in vitro” value was 3.0 nM.

For `O=C(O)CCCCN(CCc1ccccc1OCc1ccc(CCc2ccccc2)cc1)C1CCCc2cc(C(=O)O)ccc21` (stereo not drawn) [Example 8], in test [1], the “MEC … at the sGC enzyme in vitro” value stood at 0.32 nM and the EC50 was 7.2 nM. Further, the “MEC … in the CHO reporter cell in vitro” value in test [3] is given as 0.3 nM.

Turning to `N#Cc1cccc(COc2ccccc2CCN(CCCCC(=O)O)C2CCCc3cc(C(=O)O)ccc32)c1` (stereo not drawn) [Example 10], the “MEC … at the sGC enzyme in vitro” value in test [1] is given as 270 nM. Also, the “MEC … in the CHO reporter cell in vitro” value in test [3] stood at 1000 nM.

Turning to `Cc1cc(COc2ccccc2CCN(CCCCC(=O)O)C2CCCc3cc(C(=O)O)ccc32)n(C)n1` (stereo not drawn) [Example 11], in test [1], the “MEC … at the sGC enzyme in vitro” value is recorded as 610 nM.

On to `CC1CCC(=O)N1CCCCOc1ccccc1CCN(CCCCC(=O)O)C1CCCc2cc(C(=O)O)ccc21` (stereo not drawn) [Example 13], for which the “MEC … at the sGC enzyme in vitro” value in test [1] worked out at 55 nM.

On to `O=C(O)CCCCN(CCc1ccccc1OCCCCN1CCCC1=O)C1CCCc2cc(C(=O)O)ccc21` (stereo not drawn) [Example 16], for which, in test [1], the “MEC … at the sGC enzyme in vitro” value is 600 nM.
